One experiment concerns the target T1, NSD1 (Homo sapiens, UniProt Q96L73).
T1 construct: purchased Structural Genomics Consortium (SGC Toronto) in-house methyltransferase panel
Nature of the experiment: Methyltransferase selectivity assay (filter-based, nucleosome substrate). Type of experiment: biochemical. As for the experimental part:
(§1) Selectivity against methyltransferases were determined as described previously. Details of the assays are described in the supplementary methods.
(§2) Methyltransferase selectivity assay1
(§3) The effect of chemical probes and negative controls on the methyltransferase activities of protein, DNA and RNA methyltransferases was tested by radiometric assays using 3H-SAM. […]
(§4) The CPM in the absence of compound or enzyme was defined as 100% activity and background (0%), respectively, for each dataset. […]
(§5) For proteins which were tested with nucleosome as substrate such as DOT1L, NSD1, NSD2, NSD3, and ASH1L, or unbiotinylated Poly(2′-deoxyinosinic-2′-deoxycytidylic acid) (Cat# 81349-500UG, Sigma Aldrich) such as DNMT3A/3L, and DNMT3B/3L, a filter-based assay was used. In this assay, a trichloroacetic acid (TCA) protein precipitation protocol was employed. A 10 µL reaction mixture was incubated at 23°C for 1 h, followed by addition of 50 µL of 10% TCA. The mixture was transferred to filter plates (Millipore, Billerica, MA, USA) that were centrifuged at 2000 rpm (Allegra X-15R; Beckman Coulter, Brea, CA, USA) for 2 min. Samples were washed twice with 10% TCA and once with ethanol (180 µL), and centrifuged. After drying, 100 µL MicroScint-O (Perkin Elmer) was added to each well and the plates were centrifuged to remove the liquid. A 70 µL volume of MicroScint-O was added and the CPM was measured with a TopCount plate reader.

Another experiment concerns the target T2, NSD2 (Homo sapiens, UniProt O96028).
T2 construct: purchased Structural Genomics Consortium (SGC Toronto) in-house methyltransferase panel
T2 sequence (O96028 1-1365): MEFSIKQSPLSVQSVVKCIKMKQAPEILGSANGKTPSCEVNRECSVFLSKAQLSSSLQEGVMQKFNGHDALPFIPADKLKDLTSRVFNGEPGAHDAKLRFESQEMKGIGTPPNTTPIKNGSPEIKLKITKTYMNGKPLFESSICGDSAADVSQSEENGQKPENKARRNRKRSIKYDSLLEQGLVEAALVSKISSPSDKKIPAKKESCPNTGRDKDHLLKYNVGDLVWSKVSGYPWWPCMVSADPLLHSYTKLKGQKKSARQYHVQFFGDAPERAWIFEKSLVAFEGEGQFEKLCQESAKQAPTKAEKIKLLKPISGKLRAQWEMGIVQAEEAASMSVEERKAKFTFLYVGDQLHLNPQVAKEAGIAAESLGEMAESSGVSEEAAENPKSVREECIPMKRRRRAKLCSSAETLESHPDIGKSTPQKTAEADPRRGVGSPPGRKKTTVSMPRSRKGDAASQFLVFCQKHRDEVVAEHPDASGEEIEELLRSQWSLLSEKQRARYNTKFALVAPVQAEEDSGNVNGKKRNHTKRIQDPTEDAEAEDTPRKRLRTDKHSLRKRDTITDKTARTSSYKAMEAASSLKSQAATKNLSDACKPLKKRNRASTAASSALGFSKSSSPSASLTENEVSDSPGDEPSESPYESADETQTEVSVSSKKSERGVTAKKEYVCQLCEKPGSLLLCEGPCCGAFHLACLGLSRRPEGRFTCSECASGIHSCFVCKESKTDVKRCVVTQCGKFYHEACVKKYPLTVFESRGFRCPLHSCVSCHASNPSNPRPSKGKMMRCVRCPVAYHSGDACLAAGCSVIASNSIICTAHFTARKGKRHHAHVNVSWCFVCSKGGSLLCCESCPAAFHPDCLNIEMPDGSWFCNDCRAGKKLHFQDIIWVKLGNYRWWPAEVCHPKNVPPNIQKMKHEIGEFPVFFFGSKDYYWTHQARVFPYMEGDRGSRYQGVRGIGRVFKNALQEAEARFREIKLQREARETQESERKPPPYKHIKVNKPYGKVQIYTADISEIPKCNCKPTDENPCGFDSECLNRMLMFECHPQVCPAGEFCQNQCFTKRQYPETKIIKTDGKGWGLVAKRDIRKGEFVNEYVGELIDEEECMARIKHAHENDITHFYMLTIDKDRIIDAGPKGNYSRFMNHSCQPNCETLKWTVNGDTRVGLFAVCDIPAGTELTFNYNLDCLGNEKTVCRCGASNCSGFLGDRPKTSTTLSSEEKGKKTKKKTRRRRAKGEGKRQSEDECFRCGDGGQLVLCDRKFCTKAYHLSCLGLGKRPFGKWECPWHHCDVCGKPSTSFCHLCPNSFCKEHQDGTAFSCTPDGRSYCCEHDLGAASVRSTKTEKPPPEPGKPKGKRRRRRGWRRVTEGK
The experiment is described as above. Format: biochemical. As for the experimental part: as §1, §2, §3, §4, §5

[1] abbreviates: 10µM compound, Exp1, Exp2, 10 µM.
[2] abbreviates: 1µM compound, Exp1, Exp2, read-out: Activity %.
[3] abbreviates: 10µM compound, Exp1, Exp2, read-out: Activity %.

Results on two compounds are retold here after paper PMC6917776, “Discovery of a chemical probe for PRDM9” (Nature Communications, 2019).

Like-named read-outs stand apart in the source and are kept apart here.

T1 sequence (Q96L73 whole entry): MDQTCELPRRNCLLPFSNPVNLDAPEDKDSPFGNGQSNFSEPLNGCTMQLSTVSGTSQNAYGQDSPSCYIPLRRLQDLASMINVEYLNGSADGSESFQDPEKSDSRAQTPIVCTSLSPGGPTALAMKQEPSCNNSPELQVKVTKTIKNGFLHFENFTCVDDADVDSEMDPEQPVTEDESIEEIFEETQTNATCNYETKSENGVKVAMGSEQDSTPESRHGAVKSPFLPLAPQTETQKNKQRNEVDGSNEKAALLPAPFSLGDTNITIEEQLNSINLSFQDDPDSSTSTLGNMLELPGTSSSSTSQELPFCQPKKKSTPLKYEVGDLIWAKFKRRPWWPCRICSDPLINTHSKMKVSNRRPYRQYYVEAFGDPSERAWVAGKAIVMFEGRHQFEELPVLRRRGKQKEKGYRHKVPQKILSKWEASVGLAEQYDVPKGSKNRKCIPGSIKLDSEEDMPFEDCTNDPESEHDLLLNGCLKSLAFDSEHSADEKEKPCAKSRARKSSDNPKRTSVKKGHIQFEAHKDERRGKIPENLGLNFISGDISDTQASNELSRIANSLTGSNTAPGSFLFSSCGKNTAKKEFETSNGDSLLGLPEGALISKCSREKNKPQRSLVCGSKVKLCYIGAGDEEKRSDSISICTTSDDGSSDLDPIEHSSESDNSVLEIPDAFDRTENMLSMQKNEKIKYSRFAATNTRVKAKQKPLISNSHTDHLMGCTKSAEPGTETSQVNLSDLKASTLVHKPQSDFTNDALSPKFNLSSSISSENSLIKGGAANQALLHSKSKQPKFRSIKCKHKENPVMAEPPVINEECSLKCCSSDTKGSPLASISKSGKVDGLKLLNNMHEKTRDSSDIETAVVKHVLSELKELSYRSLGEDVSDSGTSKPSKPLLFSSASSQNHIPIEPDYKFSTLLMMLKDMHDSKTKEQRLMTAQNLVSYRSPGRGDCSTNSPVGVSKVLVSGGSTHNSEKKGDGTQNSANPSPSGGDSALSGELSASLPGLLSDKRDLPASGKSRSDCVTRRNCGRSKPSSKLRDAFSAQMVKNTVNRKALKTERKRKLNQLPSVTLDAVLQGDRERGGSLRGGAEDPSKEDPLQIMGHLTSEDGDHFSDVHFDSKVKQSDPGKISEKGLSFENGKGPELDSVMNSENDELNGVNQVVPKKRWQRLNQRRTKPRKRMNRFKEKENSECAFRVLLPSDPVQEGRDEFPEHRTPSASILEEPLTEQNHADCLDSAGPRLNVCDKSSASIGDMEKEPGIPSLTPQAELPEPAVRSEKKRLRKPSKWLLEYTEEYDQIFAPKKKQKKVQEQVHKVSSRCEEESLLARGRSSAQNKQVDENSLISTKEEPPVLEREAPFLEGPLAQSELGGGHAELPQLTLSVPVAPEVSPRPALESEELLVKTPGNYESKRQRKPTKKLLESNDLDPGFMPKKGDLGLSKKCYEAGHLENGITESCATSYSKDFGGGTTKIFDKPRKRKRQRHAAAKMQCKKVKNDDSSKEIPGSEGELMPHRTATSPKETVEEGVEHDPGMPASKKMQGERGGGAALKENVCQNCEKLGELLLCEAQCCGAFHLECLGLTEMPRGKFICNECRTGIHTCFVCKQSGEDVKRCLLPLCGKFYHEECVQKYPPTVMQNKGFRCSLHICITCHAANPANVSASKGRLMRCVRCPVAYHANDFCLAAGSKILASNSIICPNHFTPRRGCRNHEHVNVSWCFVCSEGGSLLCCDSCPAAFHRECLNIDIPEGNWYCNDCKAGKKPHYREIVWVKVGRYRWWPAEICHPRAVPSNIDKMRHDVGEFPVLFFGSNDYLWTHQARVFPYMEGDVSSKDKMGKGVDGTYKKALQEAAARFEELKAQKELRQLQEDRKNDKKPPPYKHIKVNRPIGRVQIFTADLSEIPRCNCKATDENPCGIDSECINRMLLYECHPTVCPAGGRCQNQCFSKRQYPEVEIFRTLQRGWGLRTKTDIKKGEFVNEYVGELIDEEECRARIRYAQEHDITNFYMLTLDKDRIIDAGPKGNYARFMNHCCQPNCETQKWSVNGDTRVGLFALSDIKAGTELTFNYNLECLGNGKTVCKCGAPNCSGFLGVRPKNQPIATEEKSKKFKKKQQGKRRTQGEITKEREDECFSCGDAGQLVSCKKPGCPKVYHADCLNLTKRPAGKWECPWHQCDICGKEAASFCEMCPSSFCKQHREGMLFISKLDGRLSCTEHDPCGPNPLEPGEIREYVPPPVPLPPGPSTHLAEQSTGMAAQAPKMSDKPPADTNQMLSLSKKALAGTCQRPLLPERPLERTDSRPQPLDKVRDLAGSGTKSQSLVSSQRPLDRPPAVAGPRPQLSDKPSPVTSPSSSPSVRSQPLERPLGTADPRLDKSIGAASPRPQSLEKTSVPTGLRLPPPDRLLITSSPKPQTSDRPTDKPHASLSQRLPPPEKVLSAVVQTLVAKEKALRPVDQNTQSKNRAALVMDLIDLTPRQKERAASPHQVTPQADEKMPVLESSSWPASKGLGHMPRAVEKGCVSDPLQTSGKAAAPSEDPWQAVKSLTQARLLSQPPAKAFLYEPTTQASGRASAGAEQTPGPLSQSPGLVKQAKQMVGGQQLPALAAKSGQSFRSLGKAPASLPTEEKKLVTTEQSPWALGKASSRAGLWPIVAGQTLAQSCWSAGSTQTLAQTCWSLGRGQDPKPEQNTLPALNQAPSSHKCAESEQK

As to `COc1cc(OC)cc(-c2noc(N3CCN(C)C4(CCN(c5ccccc5)CC4)C3)n2)c1` [MRK-740 -NC], the activity at 1 µM on NSD1 (1µM compound, Exp1, Exp2) turned out to be 103%; on NSD2 (1µM compound, Exp1, Exp2), 98%. Also, the activity at 10 µM worked out at 100% at NSD1 (10µM compound, Exp1, Exp2) and 98% at NSD2 (10µM compound, Exp1, Exp2). Besides, the Activity % on NSD1 (setting [1]) turned out to be 99%; on NSD2 (1µM compound, Exp1, Exp2, 1 µM), 100%; on NSD2 (setting [1]), 88%.

For `COc1cc(OC)cc(-c2noc(N3CCN(C)C4(CCN(c5ccnc(C)c5)CC4)C3)n2)c1` [MRK-740], the Activity % on NSD1 (1µM compound, Exp1, Exp2, 1 µM) is 97%; at NSD1 (setting [1]) it was 98%; at NSD2 (1µM compound, Exp1, Exp2, 1 µM) it was 97%; at NSD2 (setting [1]) it was 95%. The activity at 1 µM at NSD1 (setting [2]) was found to be 96%; on NSD2 (setting [2]), 91%. In addition, the activity at 10 µM was 106% on NSD1 (setting [3]) and 98% on NSD2 (setting [3]).
